What was measured:
hippocampal neurons [1] = assay: cultured hippocampal neurons, initial stage of growth: axons, dendrites, excitatory synapses; format: cell-based, ICR mouse
Method: Hippocampal neurons were collected from a juvenile (0 day after birth) ICR mouse brain and neurons were cultured on a culture dish.
Specimen 1 was added once to the cells in the initial stage of growth (on culture day 1) and after three days (on culture day 4), the number of neuron axons, dendrites, and growing synapses of the hippocampal neurons (neurons) was quantified. Specimen 1 (0.1 μM, 0.3 μM, 1.0 μM) was added once on culture day 1. Axon and Dendrite were immunostained with a tau antibody and a MAP2 antibody, respectively, three days after the addition (on culture day 4) and morphology thereof was observed.
An experiment was performed by drawing concentric circles (not shown) at an interval of 10 μm with a soma as a center and the number of axons crossing the circles was measured.
The dendrite was immunostained with a MAP2 antibody on culture day 4 and the number of branches of the dendrite was quantified. An experiment was performed by drawing concentric circles (not shown) at an interval of 10 μm with a soma as a center and the number of dendrites crossing the circles was counted.
Then, excitatory synapses on culture 14 day were immunostained with a VGLUT1 antibody and the number of synapses was quantified.

[2] = test system: human glioma U251 cells (Sig1-R transfected cells); assay: intracellular ATP concentration in human glioma U251 cells; format: cell-based; settings: fluorescence measurement 6 hours after administration
Method: To cultured human glioma US251 cells (Sig1-R transfected cells) were added Specimens 1 and 2, respectively and intercomparison was performed between intracellular ATP concentration after addition and that without addition (Cont.). […] It is to be noted that fluorescence measurement was performed 6 hours after the administration of the specimens.

hippocampal neurons [3] = assay: mature cultured hippocampal neurons: dendrite branches; format: cell-based, ICR mouse
Method: As in Example 4, hippocampal neurons were collected from a juvenile (0 day after birth) ICR mouse brain and the neurons were cultured on a culture dish.
Specimen 1 was administered once to the mature cultured hippocampal cells (on culture day 11) and three days later (on culture day 14), the neuron axons and dendrites of the hippocampal neurons (neurons) were observed.
Concentric circles were drawn at an interval of 10 μm with a soma as a center and the number of dendrites crossing the circles was measured.

[4] = test system: cytoplasmic calcium concentration; assay: cytoplasmic calcium concentration in brain slice preparations exposed to 80K ACSF, 24 h after subcutaneous administration; format: in vivo, mouse (C57B/6NL)
Method: (§1) Formation of brain slice preparation and measurement of calcium concentration: Used was a whole brain half-cut preparation obtained by cutting a whole brain slice (300 μm) of a mouse (C57B/6NL), pretreated with Specimen 1 for 24 hours by subcutaneous administration, at a median line. […] The resulting preparation was placed in a chamber provided on a stage of an inverted fluorescence microscope (Olympus IX71), covered with a piece of black cotton, fixed with a platinum ring, and refluxed (70 ml/hr) in ACSF aerated with 95% O2 and 5% CO2. A fluorescent image of the preparation was acquired using a 4× objective lens and respective images of the hippocampal ventral part and cerebral cortex temporal region were obtained in one screen. For the measurement of a mitochondrial calcium concentration, a change in intensity of red fluorescence (>600 nm) caused by excitation light at 580 nm was determined and for the measurement of a cytoplasmic calcium concentration, a ratio of fluorescence (>500 nm) between excitation at 360 nm and that at 380 nm was determined. A hippocampal CA1 site and a cerebral cortex were used as two regions of interest (ROI).
(§2) In water was dissolved β-NMN to give a 10 mg/kg, 30 mg/kg, or 100 mg/kg solution; Specimen 1 was dissolved in an alcohol to give a solution of 1 mg/ml and then the resulting solution was diluted with water to give a 0.01 mg/kg, 0.1 mg/kg or 1.0 mg/kg solution; and they were subcutaneously administered to mice 24 hours before the formation of the preparation (0.1 ml/10 g).
(§3) In the present test, an operation of exposing the brain preparations formed from mice administered with two drugs having respective concentrations to isotonic 80 mM KCl-ACSF (artificial cerebrospinal fluid) for 5 minutes and then returning them in normal ACSF for 5 minutes was performed three successive times to give a severe calcium load to the preparations. Variations in cytoplasmic and mitochondrial calcium concentrations at that time were measured.

[5] = test system: astrocytes, one of glial cells of the central nerve system; assay: fluorescence measurement of ATP amount in cultured astrocytes; format: cell-based; settings: 1 μM
Method: Specimen 1 was added to astrocytes, one of glial cells of the central nerve system, after culturing and the fluorescence measurement results are shown in FIG. 2A and FIG. 2B.

[6] = test system: mitochondrial calcium concentration; assay: mitochondrial calcium concentration in brain slice preparations exposed to 80K ACSF, 24 h after subcutaneous administration; format: in vivo, mouse (C57B/6NL)
Method: as §1, §2, §3
FIG. 31A to FIG. 32C show the quantification results of the effects of β-NMN and Specimen 1 (TND1128) at each concentration. In FIG. 31A to FIG. 32C, FIG. 31A and FIG. 32A show the results of calculating a mitochondrial calcium concentration, as AUC (Area under the curve), for 35 minutes from 5 minutes after starting of the experiment by administration to three times exposure to 80K-ACSF and 5-minute washing (refer to FIG. 37). FIG. 31B. FIG. 31C, FIG. 32B and FIG. 32C show the drug effects on 5-minute 80K administration and 5-minute subsequent washing (1st: from 5 minutes to 15 minutes, 2nd: from 15 minutes to 25 minutes, and 3rd: from 25 minutes to 35 minutes) in the cerebral cortex (CTX) and the hippocampus (CA1), respectively (refer to FIG. 37). A significant difference test was performed using Tukey's method.

[7] = test system: human-derived neuroblast (Neuroblastoma) SH-SY5Y strain; assay: fluorescence measurement of intracellular/extracellular ATP concentration in SH-SY5Y cultured cells; format: cell-based; settings: for intracellular ATP production (fluorescence intensity): in the cells
Method: After the addition of Specimen 1 to cultured cells of a human-derived neuroblast (Neuroblastoma) SH-SY5Y strain, fluorescence measurement of an intracellular/extracellular ATP concentration was performed.

SIRT1 = SIRT1 in treated nematode (preliminary experiment); format: in vivo; settings: nematode treated for 24 hours
[8] = lipophilicity, hydrophobicity and stability; format: physicochemical
[9] = test system: intracerebral hemorrhage model rats; assay: intracerebral hemorrhage model rats, amount of exercise; format: in vivo, Wistar rats; settings: 100 μg/kg injected into the brain spot one hour after collagenase; hemorrhage day 1 and one week after
Method: Intracerebral hemorrhage model rats were prepared by making a small hole into the skull of adult Wistar rats (weight: from 200 to 230 g) under inhalation anesthesia, administering 1.2 μl of a physiological saline to the right brain striatum in Control group and a physiological saline comprising 0.24 U collagenase (type IV) to that of a hemorrhage group.
In order to confirm the brain cell protective action of Specimen 4 for the intracerebral hemorrhage model rats, 100 μg/kg of Specimen 4 was injected into a spot (white lozenge in the drawing) one hour after administration of collagenase, and exercise footprints of the rat were quantitatively measured. (A: Control, B: Hemorrhage group. Pay attention to color change (to black) after hemorrhage).
For the measurement of the amount of exercise, the moving image of the rats was photographed for 5 minutes. The free movement (exercise distance and exercise speed) during the latter 3 minutes of the photographing time was analyzed.

[10] = 0.3 μM and 1.0 μM, culture day 4

**Q.** With `CCn1c2nc(=O)n(C)c(=O)c-2cc2ccccc21` [Specimen 1] as the compound, how does the “drug efficacy on axons at 0.3 μM and 1.0 μM” value (hippocampal neurons [1]; [10]) read?
**A.** almost similar maximum drug efficacy

**Q.** And the “drug efficacy on dendrites at 0.3 μM and 1.0 μM” value (hippocampal neurons [1]; [10])?
**A.** almost similar maximum drug efficacy

**Q.** What about the “number of excitatory synapses” value (hippocampal neurons [1]; 0.3 μM, VGLUT1 antibody, culture day 14) of the same compound?
**A.** significantly increased the number of excitatory synapses to the maximum

**Q.** What about the “dendrite extension and number of branches” value (hippocampal neurons [1]; 0.1, 0.3, 1.0 μM added once on culture day 1, MAP2 antibody, culture day 4) of the same compound?
**A.** concentration-dependently extended the dendrite and increased the number of branches thereof

**Q.** And the “elongation/growth of neuron axons and number of branches” value (hippocampal neurons [1]; 0.1, 0.3, 1.0 μM added once on culture day 1, tau antibody, culture day 4)?
**A.** concentration-dependently increases the elongation/growth of neuron axons and the number of branches

**Q.** What about the “ATP production amount (intracellular ATP concentration vs without addition)” value [2] of the same compound?
**A.** significantly increased the ATP production amount

**Q.** And the “number of dendrites in mature cultured cell” value (hippocampal neurons [3]; 0.3 μM and 1 μM, administered culture day 11, MAP2 antibody culture day 14)?
**A.** the number of dendrites tends to increase

**Q.** And the “increase in the number of dendrite branches, mature cells compared with culture day 4” value (hippocampal neurons [3]; administered culture day 11, observed culture day 14)?
**A.** an increase in the number of branches was not so more marked than that caused by the drug efficacy observed in the cells on culture day 4

**Q.** What about the “effect on drastic increase in cytoplasmic Ca2+ concentration caused by 80K-ACSF” value ([4]; s.c. 24 h pretreatment) of the same compound?
**A.** no significant effect

**Q.** And the “quantified cytoplasmic Ca2+ (AUC), significant difference” value ([4]; s.c. 24 h pretreatment, all doses)?
**A.** a significant difference was not observed

**Q.** And the “recovery of cytoplasmic calcium concentration variations at each 80K-ACSF administration” value ([4]; β-NMN 30 or 100 mg/kg, Specimen 1 0.01 to 1.0 mg/kg, s.c. 24 h)?
**A.** show similar recovery

**Q.** And the “ATP amount in the glial cells” value ([5]; 12 hours and 24 hours after administration)?
**A.** significantly increased

**Q.** And the “extracellular ATP amount” value ([5]; astrocytes)?
**A.** shows a similar tendency

**Q.** And the “physiological response of the preparations under 80K-ACSF stimulation (mitochondrial and cytoplasmic Ca2+ variations)” value ([6]; 100 mg/kg β-NMN, 1 mg/kg Specimen 1)?
**A.** the preparations can maintain a markedly stable physiological response

**Q.** And the “mitochondrial protective function / function stabilizing effect” value ([6]; 24 hours after administration)?
**A.** significant mitochondrial function stabilizing effect

**Q.** And the effective amount ([6]; s.c. 24 h pretreatment)?
**A.** ≤ 1.0 mg/kg

**Q.** And the “strength of mitochondrial Ca2+ concentration suppressing effect relative to β-NMN, judged from the effective concentration” value ([6]; s.c. 24 h pretreatment)?
**A.** 100 times

**Q.** What about the “mitochondrial calcium concentration as AUC, cerebral cortex (CTX) and hippocampus (CA1)” value ([6]; s.c. 24 h pretreatment, within the dose range studied, Tukey's method) of the same compound?
**A.** a dose response relationship

**Q.** What about the “mitochondrial Ca2+ increase on three times 80K ACSF exposure (time course)” value ([6]; s.c. 24 h pretreatment, β-NMN 10, 30, 100 mg/kg, Specimen 1 0.01, 0.1, 1.0 mg/kg) of the same compound?
**A.** dose-dependently suppress a mitochondrial Ca^2+ increase

**Q.** And the “intracellular ATP production (fluorescence intensity)” value ([7]; 1 μM, after 12 hours)?
**A.** the effect disappears after 12 hours

**Q.** And the “intracellular ATP production (fluorescence intensity)” value ([7]; 1 μM, immediately after addition)?
**A.** an increase in ATP production (increase in fluorescence intensity) is observed for 5 hours

**Q.** What about the “extracellular ATP production / ATP concentration” value ([7]; 1 μM, outside the cells) of the same compound?
**A.** an increase in ATP production is observed for 5 hours

**Q.** And the “morphological change of the cultured cells” value ([7]; treatment with the specimen)?
**A.** no morphological change of the cultured cells

**Q.** And the SIRT1 (SIRT1)?
**A.** significant increase

**Q.** And the hydrophobicity [8]?
**A.** highly hydrophobic

**Q.** What about the stability ([8]; chemical stability) of the same compound?
**A.** stable

**Q.** With `Cn1c(=O)nc2n(-c3ccccc3)c3cc(Cl)ccc3cc-2c1=O` [Specimen 4] as the compound, how does the exercise distance [9] read?
**A.** ameliorates an ischemic decrease

**Q.** And the exercise speed [9]?
**A.** ameliorates an ischemic decrease

— patent publication US11806351B2, “Use of coenzyme factor for activation of ATP production in cell” (TERA STONE Co., Ltd, priority 2018, dated 2023)
